This assay has as its target 3-isopropylmalate dehydrogenase (Thermus thermophilus, UniProt Q5SIY4). The assay can be described thus: Inhibition of Thermus thermophilus HB8 IPMDH assessed as formation of NADH by Lineweaver-Burke plot analysis.

Chain of 3-isopropylmalate dehydrogenase (Q5SIY4 whole entry): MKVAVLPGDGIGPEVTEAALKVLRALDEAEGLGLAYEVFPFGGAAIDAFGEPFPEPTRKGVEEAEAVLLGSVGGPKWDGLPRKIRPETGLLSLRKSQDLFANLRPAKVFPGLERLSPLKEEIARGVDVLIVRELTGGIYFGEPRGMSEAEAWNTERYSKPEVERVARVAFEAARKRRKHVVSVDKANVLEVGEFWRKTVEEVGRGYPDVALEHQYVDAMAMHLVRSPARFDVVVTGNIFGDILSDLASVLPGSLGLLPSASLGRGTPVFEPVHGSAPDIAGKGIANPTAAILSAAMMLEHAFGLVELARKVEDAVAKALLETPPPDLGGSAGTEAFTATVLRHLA

For `CS[C@H](C(=O)O)[C@@H](O)C(=O)O`, the Ki turned out to be 62 nM.

Broadly, the Ki is the dissociation constant of the complex between target and ligand, obtained from inhibition or displacement.

For the origin of these results see ChEMBL document CHEMBL1152673, “Crystal structure of 3-isopropylmalate dehydrogenase in complex with NAD(+) and a designed inhibitor” (Bioorg Med Chem, 2009).
